Data published in US9309231B2, “Bridged ring compounds as hepatitis C virus (HCV) inhibitors and pharmaceutical applications thereof” (SUNSHINE LAKE PHARMA CO., LTD, priority 2012, dated 2016).

Tests used:
HCV GT1b replicon cells = test: HCV replicon assay, GT1b replicon cells; assay type: cell-based; conditions: Hepatitis C virus, 72 hours incubation, luciferase reporter or NEO gene qPCR readout, read-out: EC50 against HCV 1b genotype
Protocol: (§1) An HCV Replicon assay was utilized in the present disclosure, and was prepared, developed and validated as described in Science, 1999, 285 (5424), 110-3 and J. Virol., 2003, 77 (5), 3007-19.
(§2) HCV GT1a, GT1b and GT2a replicon cells were used to test the currently described compound series as well as wild-type cells HCV 1b and resistant cells Y^93H, L31F, P32L and I302V. GT1a and CT1b are HCV Replicon System which is transfected HCV 1a, 1b genotype respectively.
(§3) 1. Testing EC50 of the Compounds by Luciferase Assay
(§4) The GT1b cells and GT1a cells were seeded into 96-well plates (8,000 cells in 125 μl/well) respectively; each compound was diluted to desired concentration using 5-fold serial dilutions protocol, 10 dose in duplicate, and added to wells with POD™ 810 Plate Assembler. The final concentration of DMSO was 0.5%; the plates were incubated in a CO2 incubator for 72 hours; after that, 40 μl of Luciferase assay substrate (Promega Bright-Glo) was added to each well, and detected by a chemiluminescence detection system (Topcount Microplate Scintillation and Luminescence Counter) 5 minutes later; data analysis.
(§5) 2. Testing EC50 of the Compounds by Detecting Antibiotic G418 Resistance Gene NEO Gene
(§6) The GT1b cells and GT1a cells were seeded into 96-well plates (8,000 cells in 125 μl/well) respectively; each compound was diluted to desired concentration using 5-fold serial dilutions protocol, 10 dose in duplicate, and added to wells with POD™ 810 Plate Assembler., the final concentration of DMSO was 0.5%; the cells were incubated in a CO2 incubator for 72 hours; quantitative PCR. • Sample preparation: the supernatant was removed, 100 μl of FCW buffer solution was added to each well, washed carefully and discarded the solution; 50 μl of lysate FCP was added to each well, the cells was lysed as PCR template and diluted with DEPC water. • Quantitative PCR: preparation of reaction mixture according to PCR system; the reaction mixture was dispensed into a 384-well PCR reaction plate (specially for quantitative); and a standard template which was diluted in proportion was distributed into the plate; and the sample template was distributed into the plate; then the 384-well plate was sealed with closure plate membrane; the […] PCR machine was operated by procedures; data analysis.
(§7) 3. Data Processing: The EC50 Values of Compounds were Analyzed by GraphPad Prism Software.

HCV GT1a replicon cells = test: HCV replicon assay, GT1a replicon cells; assay type: cell-based; conditions: Hepatitis C virus, 72 hours incubation, luciferase reporter or NEO gene qPCR readout, read-out: EC50 against HCV 1a genotype
Protocol: as §1, §2, §3, §4, §5, §6, §7

**Q.** Which EC50 (HCV GT1b replicon cells) does the source give for `[2H]C([2H])([2H])C([2H])(C([2H])([2H])[2H])[C@]([2H])(NC(=O)OC)C(=O)N1CCC[C@H]1c1ncc(-c2ccc(-c3nnc(-c4ccc5[nH]c([C@@H]6CCCN6C(=O)[C@@]([2H])(NC(=O)OC)C([2H])(C([2H])([2H])[2H])C([2H])([2H])[2H])nc5c4)c4c3C3CCC4CC3)cc2)[nH]1` [Example 78] here?
**A.** The EC50 was 0.007 nM.

**Q.** What about the EC50 (HCV GT1a replicon cells) of the same compound?
**A.** Its EC50 is 0.045 nM.

**Q.** For `[2H]C([2H])([2H])[C@]([2H])(NC(=O)OC)C(=O)N1C[C@@H](F)C[C@H]1c1ncc(-c2ccc(-c3ccc(-c4cnc([C@@H]5C[C@H](F)CN5C(=O)[C@@]([2H])(NC(=O)OC)C([2H])([2H])[2H])[nH]4)c4c3C3CCC4C3)cc2)[nH]1` (stereo partly shown) [Example 79], which EC50 (HCV GT1b replicon cells) is on record?
**A.** The EC50 was 0.043 nM.

**Q.** And the EC50 (HCV GT1a replicon cells)?
**A.** Its EC50 is 0.314 nM.
